Laboratory results reported in patent US20250127801A1, “BRIDGED TRICYCLIC CARBAMOYLPYRIDONE COMPOUNDS AND USES THEREOF” (priority 2023, published 2025).
≈ marks a conversion by molar mass, not a printed value. Read-outs that look alike come from different tables or passages of the source.

Key:
[1] = test system: HIV-1 (IIIB); assay: microbe, parasite or virus in culture; format: cell-based
[2] = in vitro; settings: human; for CC50 at 5 days: uninfected MT-4 cells
[3] = physchem; settings: 23 °C, thermodynamic from solid; for solubility thermodynamic at 24 h: FaSSIF; for solubility thermodynamic: fassif
[4] = Human immunodeficiency virus 1, MT4, 120 h, HIV-1 (IIIB) replication in MT-4 cells, 5 days incubation, Cell Titer Glo, read-out: MT4 EC50
[5] = Human immunodeficiency virus 1, IIIB, MT4, 120 h, read-out: MT4 EC50 (nM)

EC50 [1, 4] [nM] | solubility thermodynamic at 24 h [3] [mg/mL] | Structure (SMILES) | CC50 at 5 days [2] [µM] | EC50 [1, 5] [nM] | CC50 [2] [µM] | solubility thermodynamic [3] [mg/mL]
1.25 | 5.09 (≈ 6.28 mM) | CC1=NO[C@@]2(CC[C@H](C)N3C[C@H]2n2cc(C(=O)NCc4ccc(F)cc4F)c(=O)c(OCOC(=O)N(C)C[C@@H]4CCCN4C(=O)OCOP(=O)(O)O)c2C3=O)C1 [Compound 14, (phosphonooxy)methyl (2S)-2-(((((((3′S,5S,7′R)-10′-((2,4-difluorobenzyl)carbamoyl)-3,3′-dimethyl-1′,11′-dioxo-1′,4′,5′,11′-tetrahydro-3′H,4H,7′H-spiro[isoxazole-5,6′-[2,7]methanopyrido[1,2-a][1,4]diazonin]-12′-yl)oxy)methoxy)carbonyl)(methyl)amino)methyl)pyrrolidine-1-carboxylate] | 16.8 | – | – | –
1.61 | 1.48 (≈ 2.19 mM) | COC1=NO[C@@]2(CC[C@H](C)N3C[C@H]2n2cc(C(=O)NCc4ccc(F)cc4F)c(=O)c(OCOC(=O)N(C)C[C@@H]4CCCN4)c2C3=O)C1 [Compound 15, (((3′S,5S,7′R)-10′-((2,4-difluorobenzyl)carbamoyl)-3-methoxy-3′-methyl-1′,11′-dioxo-1′,4′,5′,11′-tetrahydro-3′H,4H,7′H-spiro[isoxazole-5,6′-[2,7]methanopyrido[1,2-a][1,4]diazonin]-12′-yl)oxy)methyl methyl(((S)-pyrrolidin-2-yl)methyl)carbamate] | 14.7 | – | – | –
0.93 | 2.54 (≈ 3.45 mM) | CC1=NO[C@@]2(CC[C@H](C)N3C[C@H]2n2cc(C(=O)NCc4ccc(F)cc4F)c(=O)c(OC(=O)[C@@H]4CCCN4C(=O)OCOP(=O)(O)O)c2C3=O)C1 [Compound 17, 2-((3′S,5S,7′R)-10′-((2,4-difluorobenzyl)carbamoyl)-3,3′-dimethyl-1′,11′-dioxo-1′,4′,5′,11′-tetrahydro-3′H,4H,7′H-spiro[isoxazole-5,6′-[2,7]methanopyrido[1,2-a][1,4]diazonin]-12′-yl) 1-((phosphonooxy)methyl) (2S)-pyrrolidine-1,2-dicarboxylate] | 13 | – | – | –
– | – | CC1=NO[C@@]2(CC[C@H](C)N3C[C@H]2n2cc(C(=O)NCc4ccc(F)cc4F)c(=O)c(OCOC(=O)OCc4ccc(OP(=O)(O)O)cc4)c2C3=O)C1 [Compound 19, (((3′S,5S,7′R)-10′-((2,4-difluorobenzyl)carbamoyl)-3,3′-dimethyl-1′,11′-dioxo-1′,4′,5′,11′-tetrahydro-3′H,4H,7′H-spiro[isoxazole-5,6′-[2,7]methanopyrido[1,2-a][1,4]diazonin]-12′-yl)oxy)methyl (4-(phosphonooxy)benzyl) carbonate] | – | 0.71 | 10.9 | 0.39 (≈ 0.522 mM)
– | – | CC1=NO[C@@]2(CC[C@H](C)N3C[C@H]2n2cc(C(=O)NCc4ccc(F)cc4F)c(=O)c(OCOC(=O)CC(C)(C)c4c(CC(=O)O)cc(C)cc4OP(=O)(O)O)c2C3=O)C1 [Compound 20, 2-(2-(4-((((3′S,5S,7′R)-10′-((2,4-difluorobenzyl)carbamoyl)-3,3′-dimethyl-1′,11′-dioxo-1′,4′,5′,11′-tetrahydro-3′H,4H,7′H-spiro[isoxazole-5,6′-[2,7]methanopyrido[1,2-a][1,4]diazonin]-12′-yl)oxy)methoxy)-2-methyl-4-oxobutan-2-yl)-5-methyl-3-(phosphonooxy)phenyl)acetic acid] | – | 1.76 | 12.5 | 4.41 (≈ 5.22 mM)
1.18 | 0.09 (≈ 0.15 mM) | CC1=NO[C@@]2(CC[C@H](C)N3C[C@H]2n2cc(C(=O)NCc4ccc(F)cc4F)c(=O)c(OCc4oc(=O)oc4C)c2C3=O)C1 [Compound 22, (3′S,5S,7′R)—N-(2,4-difluorobenzyl)-3,3′-dimethyl-12′-((5-methyl-2-oxo-1,3-dioxol-4-yl)methoxy)-1′,11′-dioxo-1′,4′,5′,11′-tetrahydro-3′H,4H,7′H-spiro[isoxazole-5,6′-[2,7]methanopyrido[1,2-a][1,4]diazonine]-10′-carboxamide] | 12.4 | – | – | –
– | – | CC1=NO[C@@]2(CC[C@H](C)N3C[C@H]2n2cc(C(=O)NCc4ccc(F)cc4F)c(=O)c(OCOC(=O)OCCC(C)(C)c4c(CC(=O)O)cc(C)cc4OP(=O)(O)O)c2C3=O)C1 [Compound 23, 2-(2-(4-((((((3′S,5S,7′R)-10′-((2,4-difluorobenzyl)carbamoyl)-3,3′-dimethyl-1′,11′-dioxo-1′,4′,5′,11′-tetrahydro-3′H,4H,7′H-spiro[isoxazole-5,6′-[2,7]methanopyrido[1,2-a][1,4]diazonin]-12′-yl)oxy)methoxy)carbonyl)oxy)-2-methylbutan-2-yl)-5-methyl-3-(phosphonooxy)phenyl)acetic acid] | – | 2.11 | 14.6 | 4.75 (≈ 5.43 mM)
– | – | CC1=NO[C@@]2(CC[C@H](C)N3C[C@H]2n2cc(C(=O)NCc4ccc(F)cc4F)c(=O)c(OCOC(=O)OCCC(C)(C)c4c(CC(=O)N[C@@H](CC(=O)O)C(=O)O)cc(C)cc4OP(=O)(O)O)c2C3=O)C1 [Compound 24, (2-(2-(4-((((((3′S,5S,7′R)-10′-((2,4-difluorobenzyl)carbamoyl)-3,3′-dimethyl-1′,11′-dioxo-1′,4′,5′,11′-tetrahydro-3′H,4H,7′H-spiro[isoxazole-5,6′-[2,7]methanopyrido[1,2-a][1,4]diazonin]-12′-yl)oxy)methoxy)carbonyl)oxy)-2-methylbutan-2-yl)-5-methyl-3-(phosphonooxy)phenyl)acetyl)-L-aspartic acid] | – | 1.98 | 12.3 | 4.9 (≈ 4.95 mM)
– | – | CC1=NO[C@@]2(CC[C@H](C)N3C[C@H]2n2cc(C(=O)NCc4ccc(F)cc4F)c(=O)c(OC(=O)OCCC(C)(C)c4c(CC(=O)O)cc(C)cc4OP(=O)(O)O)c2C3=O)C1 [Compound 25, 2-(2-(4-(((((3′S,5S,7′R)-10′-((2,4-difluorobenzyl)carbamoyl)-3,3′-dimethyl-1′,11′-dioxo-1′,4′,5′,11′-tetrahydro-3′H,4H,7′H-spiro[isoxazole-5,6′-[2,7]methanopyrido[1,2-a][1,4]diazonin]-12′-yl)oxy)carbonyl)oxy)-2-methylbutan-2-yl)-5-methyl-3-(phosphonooxy)phenyl)acetic acid] | – | 1.43 | 11.6 | 4.76 (≈ 5.63 mM)
– | – | CC1=NO[C@@]2(CC[C@H](C)N3C[C@H]2n2cc(C(=O)NCc4ccc(F)cc4F)c(=O)c(OC(=O)CC(C)(C)c4c(C)cc(C)cc4OP(=O)(O)O)c2C3=O)C1 [Compound 26, (3′S,5S,7′R)-10′-((2,4-difluorobenzyl)carbamoyl)-3,3′-dimethyl-1′,11′-dioxo-1′,4′,5′,11′-tetrahydro-3′H,4H,7′H-spiro[isoxazole-5,6′-[2,7]methanopyrido[1,2-a][1,4]diazonin]-12′-yl 3-(2,4-dimethyl-6-(phosphonooxy)phenyl)-3-methylbutanoate] | – | 1.13 | 12.2 | 4.29 (≈ 5.57 mM)
– | – | CC1=NO[C@@]2(CC[C@H](C)N3C[C@H]2n2cc(C(=O)NCc4ccc(F)cc4F)c(=O)c(OCOC(=O)CC(C)(C)c4c(C)cc(C)cc4OP(=O)(O)O)c2C3=O)C1 [Compound 27] | – | 2.75 | 16.9 | 2.26 (≈ 2.82 mM)
